# Laboratory results reported in ChEMBL document CHEMBL1201862, “PubChem BioAssay data set” (2004).
# The source made the active and inactive calls.
# Key:
# [1] = target: Metabotropic glutamate receptor 4 (Rattus norvegicus, UniProt P31423); assay: Modulation of the Metabotropic Glutamate Receptor mGluR4: Rat PAM Potency. [Related pubchem assays (depositor defined):AID2437, AID2807]; type: functional
# [2] = target: Heat shock protein HSP 90-alpha (Homo sapiens, UniProt P07900); assay: Luminescence-based dose response biochemical high throughput screening assay for inhibitors of the Heat Shock Protein 90 (HSP90). [Related pubchem assays: 1831 (Summary AID.), 1846 (Confirmation screen.), 1789 (Primary screen.)]
# Hexokinase HKDC1 = target: T1, Hexokinase HKDC1 (Homo sapiens, UniProt Q2TB90); assay: inhibition of HKDC1 glucose phosphorylation – biochemical, W721R variant, dose response (AID 504729); type: functional
# T1 sequence (Q2TB90 whole entry): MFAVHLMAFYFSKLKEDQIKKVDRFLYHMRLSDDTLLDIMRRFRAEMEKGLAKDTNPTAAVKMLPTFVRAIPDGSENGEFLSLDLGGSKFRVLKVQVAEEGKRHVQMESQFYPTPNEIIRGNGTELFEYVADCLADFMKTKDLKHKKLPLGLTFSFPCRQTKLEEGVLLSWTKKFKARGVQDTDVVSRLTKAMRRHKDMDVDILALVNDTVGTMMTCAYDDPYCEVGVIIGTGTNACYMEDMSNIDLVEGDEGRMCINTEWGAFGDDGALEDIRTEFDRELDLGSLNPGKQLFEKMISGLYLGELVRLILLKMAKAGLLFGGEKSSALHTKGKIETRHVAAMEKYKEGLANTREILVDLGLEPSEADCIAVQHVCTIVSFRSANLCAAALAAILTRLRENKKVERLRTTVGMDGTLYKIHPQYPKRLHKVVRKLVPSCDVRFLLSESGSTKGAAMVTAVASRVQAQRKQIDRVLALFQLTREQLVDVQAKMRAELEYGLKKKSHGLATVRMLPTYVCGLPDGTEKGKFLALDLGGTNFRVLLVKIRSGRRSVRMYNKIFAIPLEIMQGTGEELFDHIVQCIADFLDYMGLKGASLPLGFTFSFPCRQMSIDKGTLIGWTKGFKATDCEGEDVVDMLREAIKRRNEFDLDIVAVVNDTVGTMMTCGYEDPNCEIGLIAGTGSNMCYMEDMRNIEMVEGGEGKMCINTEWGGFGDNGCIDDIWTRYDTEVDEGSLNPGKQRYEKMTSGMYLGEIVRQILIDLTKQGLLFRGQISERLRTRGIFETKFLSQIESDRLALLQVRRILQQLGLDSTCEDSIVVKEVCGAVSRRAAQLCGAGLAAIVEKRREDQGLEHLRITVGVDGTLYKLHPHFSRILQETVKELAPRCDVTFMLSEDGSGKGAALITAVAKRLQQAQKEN
# SUMO-activating enzyme [3] = target: T2, SUMO-activating enzyme (Homo sapiens, UniProt Q9UBT2); assay: blockers of UBC9-mediated SUMO conjugation – biochemical, AlphaScreen, SUMOylation inhibitor project, confirmation (AID 2018); type: functional
# [4] = Trypanosoma cruzi growth suppression in host cells – NIH3T3 host cells, beta-gal luminescence, confirmation (AID 2044); type: functional, cell-based;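 also: intracellular parasites grown in NIH/3T3 mouse fibroblasts as host cells; luminescent beta-galactosidase reporter signal from transgenic T. cruzi replicating inside host cells; inhibitors lower the luminescence signal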
# [5] = target: Serine/threonine-protein phosphatase PP1-alpha catalytic subunit (Homo sapiens, UniProt P62136); assay: inhibition of protein phosphatase 1 activity – biochemical, fluorescence, dose response (AID 2394)
# [6] = target: Serine/threonine-protein phosphatase (Homo sapiens, UniProt Q9BPW0); assay: inhibition of protein phosphatase 5 activity – biochemical, fluorescence, dose response (AID 2395)
# INS1 = assay: INS-1E survival protection against cytokine death – cell-based, luminescence, retest, dose response (AID 449756); type: functional; settings: Rattus norvegicus;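 also: cell death triggered by IL-1 beta plus TNF-alpha plus IFN-gamma mixture; protective hits raise ATP signal compared with cytokine alone wells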
# SUMO-activating enzyme [7] = target: T2, SUMO-activating enzyme; assay: blockers of SAE1/SAE2–UBC9 SUMO transfer – biochemical, HTRF, uHTS, primary screen (AID 2006); type: protein-complex assay
# [8] = target: T3, Apoptotic protease-activating factor 1 (Homo sapiens, UniProt O14727); type: functional
# T3 sequence (O14727 whole entry): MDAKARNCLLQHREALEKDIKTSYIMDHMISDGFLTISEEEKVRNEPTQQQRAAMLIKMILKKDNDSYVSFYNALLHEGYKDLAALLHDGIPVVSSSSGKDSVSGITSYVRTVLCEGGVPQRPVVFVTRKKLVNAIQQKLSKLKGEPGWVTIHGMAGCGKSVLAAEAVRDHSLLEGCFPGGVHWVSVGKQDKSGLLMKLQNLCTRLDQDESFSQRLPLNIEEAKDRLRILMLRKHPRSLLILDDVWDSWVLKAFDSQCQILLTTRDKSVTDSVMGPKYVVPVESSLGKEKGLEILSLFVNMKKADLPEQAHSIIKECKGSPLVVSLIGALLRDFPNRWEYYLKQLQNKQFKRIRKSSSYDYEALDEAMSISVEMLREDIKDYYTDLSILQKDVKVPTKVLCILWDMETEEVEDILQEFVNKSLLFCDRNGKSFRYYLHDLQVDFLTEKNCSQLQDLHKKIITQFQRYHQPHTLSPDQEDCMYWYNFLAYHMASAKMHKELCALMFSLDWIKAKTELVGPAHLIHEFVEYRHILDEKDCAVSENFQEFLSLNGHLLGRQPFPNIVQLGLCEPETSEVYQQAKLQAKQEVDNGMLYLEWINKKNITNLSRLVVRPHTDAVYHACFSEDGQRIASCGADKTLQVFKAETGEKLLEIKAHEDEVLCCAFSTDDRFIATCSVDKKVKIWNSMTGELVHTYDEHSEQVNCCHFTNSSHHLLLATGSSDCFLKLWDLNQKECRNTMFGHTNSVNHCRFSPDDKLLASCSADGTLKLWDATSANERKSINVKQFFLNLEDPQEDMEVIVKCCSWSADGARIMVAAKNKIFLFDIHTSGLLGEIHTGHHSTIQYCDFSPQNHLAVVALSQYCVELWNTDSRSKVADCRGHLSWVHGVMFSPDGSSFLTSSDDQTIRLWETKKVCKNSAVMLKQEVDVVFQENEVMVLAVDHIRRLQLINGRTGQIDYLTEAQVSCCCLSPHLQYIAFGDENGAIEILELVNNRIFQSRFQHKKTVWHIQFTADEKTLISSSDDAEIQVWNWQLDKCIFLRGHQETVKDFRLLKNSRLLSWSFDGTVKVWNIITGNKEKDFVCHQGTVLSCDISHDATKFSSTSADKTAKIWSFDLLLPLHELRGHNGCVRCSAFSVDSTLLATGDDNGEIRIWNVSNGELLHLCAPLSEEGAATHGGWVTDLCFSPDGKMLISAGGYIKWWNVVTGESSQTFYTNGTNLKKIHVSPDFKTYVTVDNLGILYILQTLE
# [9] = target: T4, Mitochondrial peptide methionine sulfoxide reductase (Bos taurus, UniProt P54149); type: functional;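 also: absorbance read-out, biochemical high-throughput dose-response screen for MsrA inhibitors, confirmatory; recombinant bovine MsrA coupled to E. coli TrxB with NADPH and selenocystamine; potency is for inhibitors of MsrA activity on DMSO substrate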
# T4 sequence (P54149 whole entry): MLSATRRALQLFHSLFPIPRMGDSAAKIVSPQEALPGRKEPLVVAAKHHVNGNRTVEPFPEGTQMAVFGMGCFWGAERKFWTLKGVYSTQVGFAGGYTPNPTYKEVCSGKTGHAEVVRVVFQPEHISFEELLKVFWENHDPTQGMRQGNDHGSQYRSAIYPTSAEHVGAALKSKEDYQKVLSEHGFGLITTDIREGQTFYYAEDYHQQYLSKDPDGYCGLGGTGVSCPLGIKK
# [10] = NIH3T3 cell viability loss – ATP luminescence, mouse fibroblasts, counter-screen, dose response (AID 2010); type: functional, cell-based;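 also: cells exposed to compound for about 90 hours before reading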
# [11] = target: T5, Ubiquitin-conjugating enzyme E2 N (Homo sapiens, UniProt P61088); type: functional;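 also: Dose-response confirmation in a TR-FRET assay detecting UBC13-driven polyubiquitin chain formation, inhibition measured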
# T5 sequence (P61088 whole entry): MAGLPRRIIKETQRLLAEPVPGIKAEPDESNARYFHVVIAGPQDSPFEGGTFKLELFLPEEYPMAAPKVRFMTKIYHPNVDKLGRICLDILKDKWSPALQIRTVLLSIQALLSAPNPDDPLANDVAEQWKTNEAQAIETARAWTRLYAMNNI
# [12] = MIN6 cell viability loss – mouse insulinoma, cytotoxicity control, dose response (AID 2122); type: functional;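 also: confirmatory high-throughput counterscreen run to flag cytotoxic compounds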
# [13] = viability of PTEN-deleted HCT116 cells – cell-based, HCT116 PTEN knockout, dose response (AID 1047); type: functional;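 also: HCT116 colon tumor cells with PTEN knocked out; cells exposed to compound for 60 hours before readout; potency for loss of cell viability measured by luminescence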
# [14] = HIV-1 AD8 envelope cell-cell fusion blockers – cherry-pick, dose response (AID 652062); type: functional, cell-based;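 also: luciferase signal from cell-cell fusion driven by HIV-1 clade B AD8 Env; potency is for inhibitors of fusion seen as a drop in luminescence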
# Phospholipase A2 = Phospholipase A2 (Homo sapiens, UniProt P04054); type: functional;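 also: confirmatory dose-response counterscreen on phospholipase A2, testing hits that came from an ultra-high-throughput screen for ATG4B inhibitors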
# [15] = fluconazole-exposed Candida albicans growth modulators – fluorescence, retest, confirmation (AID 2467); type: functional, cell-based
# Cysteine protease ATG4B = target: T6, Cysteine protease ATG4B (Homo sapiens, UniProt Q9Y4P1); type: functional;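 also: Fluorescence-based dose-response confirmation assay measuring inhibition of ATG4B activity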
# T6 sequence (Q9Y4P1 whole entry): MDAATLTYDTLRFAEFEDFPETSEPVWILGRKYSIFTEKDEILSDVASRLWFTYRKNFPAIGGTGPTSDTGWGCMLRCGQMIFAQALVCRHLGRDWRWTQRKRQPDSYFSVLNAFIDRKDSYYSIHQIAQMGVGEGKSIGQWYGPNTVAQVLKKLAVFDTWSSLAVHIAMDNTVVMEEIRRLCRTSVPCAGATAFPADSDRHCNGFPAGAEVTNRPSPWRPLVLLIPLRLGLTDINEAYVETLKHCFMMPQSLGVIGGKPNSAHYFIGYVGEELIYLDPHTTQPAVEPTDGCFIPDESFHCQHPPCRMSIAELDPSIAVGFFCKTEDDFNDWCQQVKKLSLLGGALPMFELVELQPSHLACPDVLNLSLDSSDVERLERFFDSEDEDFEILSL
# [16] = decrease of insulin promoter-GFP reporter – imaging, high-content screening, mouse beta cells (AID 1628); type: functional; settings: MIN6
# [17] = viability of HCT116 lacking mutant beta-catenin – cell-based, human colon tumor, dose response (AID 1045); type: functional;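 also: HCT116 colon tumor cells with beta catenin knocked out; cells exposed to compound for 60 hours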
# [18] = blockers of HIV-1 envelope-mediated cell-cell fusion – cherry-pick, dose response (AID 652057); type: functional, cell-based
# [19] = NIH-3T3 fibroblast cytotoxicity, dose response, cytotoxicity control, cell-based, fluorescence, Alamar Blue, secondary assay (AID 2327); type: functional;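 also: NIH-3T3 mouse fibroblasts cultured with fluconazole at 8 µg/mL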
# [20] = viability loss in CEM21 cells – cell-based, CellTiter-Glo luminescence, cherry-picked, cytotoxicity control for viral fusion inhibitor project, dose response (AID 652042); type: functional;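 also: potency for signal decrease meaning cytotoxicity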
# [21] = blockers of HIV-1 ZM109 envelope-driven cell-cell fusion – HeLa effector, CEM target cells, luciferase, cherry-pick, dose response (AID 652058); type: functional, cell-based;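 also: luciferase signal from HIV-1 Env mediated cell-cell fusion of effector and target cells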
# [22] = off-target signal loss in HeLa-CEM21 co-culture – HeLa F-luc CTL cells, cherry-picked, counter-screen for HIV-1 Env fusion inhibitor project, dose response (AID 652040); type: functional, cell-based;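 also: potency for signal decrease marking cytotoxic or nonspecific inhibition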
# X-box-binding protein 1 = X-box-binding protein 1 (Homo sapiens, UniProt P17861); type: functional, Cricetulus griseus;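 also: confirmatory dose-response counter-screen serving a CHOP assay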
# Chain of X-box-binding protein 1 (P17861 whole entry): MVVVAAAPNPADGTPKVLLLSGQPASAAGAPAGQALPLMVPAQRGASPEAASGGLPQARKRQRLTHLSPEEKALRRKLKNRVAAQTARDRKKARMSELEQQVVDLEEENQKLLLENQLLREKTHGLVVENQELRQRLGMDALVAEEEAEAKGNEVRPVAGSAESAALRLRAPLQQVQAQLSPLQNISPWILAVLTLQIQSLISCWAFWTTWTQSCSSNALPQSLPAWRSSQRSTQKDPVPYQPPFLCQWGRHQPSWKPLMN
# T2 sequence (Q9UBE0 whole entry): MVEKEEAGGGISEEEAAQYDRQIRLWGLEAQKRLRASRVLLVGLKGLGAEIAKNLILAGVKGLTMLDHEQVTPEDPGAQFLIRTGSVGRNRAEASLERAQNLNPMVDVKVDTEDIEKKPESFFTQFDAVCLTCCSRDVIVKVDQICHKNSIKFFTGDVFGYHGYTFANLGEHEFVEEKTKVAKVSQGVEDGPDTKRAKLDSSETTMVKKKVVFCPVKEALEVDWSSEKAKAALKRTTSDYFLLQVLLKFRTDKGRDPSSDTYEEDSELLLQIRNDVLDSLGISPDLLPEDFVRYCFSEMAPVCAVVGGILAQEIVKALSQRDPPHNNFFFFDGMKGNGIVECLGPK
# T2 sequence (Q9UBT2 whole entry): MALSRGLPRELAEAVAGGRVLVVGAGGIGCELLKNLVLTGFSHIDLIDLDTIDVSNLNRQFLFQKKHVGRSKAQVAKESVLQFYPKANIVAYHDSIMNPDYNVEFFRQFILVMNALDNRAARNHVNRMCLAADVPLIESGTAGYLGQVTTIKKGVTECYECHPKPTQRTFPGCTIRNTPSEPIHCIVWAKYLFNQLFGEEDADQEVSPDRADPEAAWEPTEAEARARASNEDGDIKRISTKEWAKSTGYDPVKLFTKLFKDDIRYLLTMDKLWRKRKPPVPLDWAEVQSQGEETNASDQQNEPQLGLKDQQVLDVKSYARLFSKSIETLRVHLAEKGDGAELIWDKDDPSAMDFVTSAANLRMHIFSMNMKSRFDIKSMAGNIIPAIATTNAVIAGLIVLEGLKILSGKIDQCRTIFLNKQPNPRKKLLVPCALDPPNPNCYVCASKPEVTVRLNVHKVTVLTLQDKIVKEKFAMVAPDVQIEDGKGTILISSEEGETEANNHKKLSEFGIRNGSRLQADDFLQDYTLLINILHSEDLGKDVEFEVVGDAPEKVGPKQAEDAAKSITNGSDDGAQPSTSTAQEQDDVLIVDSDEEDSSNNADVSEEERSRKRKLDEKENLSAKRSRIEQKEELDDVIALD
# Chain of Serine/threonine-protein phosphatase PP1-alpha catalytic subunit (P62136 whole entry): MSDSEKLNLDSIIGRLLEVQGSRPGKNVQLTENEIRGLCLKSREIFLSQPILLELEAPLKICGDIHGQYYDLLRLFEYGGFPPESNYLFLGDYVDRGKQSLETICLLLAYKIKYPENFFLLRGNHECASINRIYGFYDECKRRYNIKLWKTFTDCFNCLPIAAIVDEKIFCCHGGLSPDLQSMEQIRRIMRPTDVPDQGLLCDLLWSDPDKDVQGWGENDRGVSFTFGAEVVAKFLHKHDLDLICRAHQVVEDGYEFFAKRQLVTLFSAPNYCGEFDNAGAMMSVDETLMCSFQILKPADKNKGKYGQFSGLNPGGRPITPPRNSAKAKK
# Chain of Serine/threonine-protein phosphatase (Q9BPW0 whole entry): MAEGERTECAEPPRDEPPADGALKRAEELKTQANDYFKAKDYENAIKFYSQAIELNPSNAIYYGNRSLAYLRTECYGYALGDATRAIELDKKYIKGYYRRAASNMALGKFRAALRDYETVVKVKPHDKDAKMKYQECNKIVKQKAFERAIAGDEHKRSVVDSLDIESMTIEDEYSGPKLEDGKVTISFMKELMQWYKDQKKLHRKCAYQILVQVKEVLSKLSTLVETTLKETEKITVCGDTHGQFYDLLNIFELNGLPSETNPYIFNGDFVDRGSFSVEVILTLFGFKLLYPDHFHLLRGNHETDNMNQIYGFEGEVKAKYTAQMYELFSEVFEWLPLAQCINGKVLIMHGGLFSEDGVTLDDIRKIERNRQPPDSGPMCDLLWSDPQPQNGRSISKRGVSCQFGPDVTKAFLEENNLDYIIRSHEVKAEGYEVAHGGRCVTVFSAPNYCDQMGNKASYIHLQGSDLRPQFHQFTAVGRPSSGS
# Chain of Phospholipase A2 (P04054 whole entry): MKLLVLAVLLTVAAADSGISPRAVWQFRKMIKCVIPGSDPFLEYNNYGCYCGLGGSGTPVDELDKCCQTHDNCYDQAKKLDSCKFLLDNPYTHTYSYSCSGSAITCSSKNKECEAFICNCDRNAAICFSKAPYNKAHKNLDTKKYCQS
# Chain of Metabotropic glutamate receptor 4 (P31423 whole entry): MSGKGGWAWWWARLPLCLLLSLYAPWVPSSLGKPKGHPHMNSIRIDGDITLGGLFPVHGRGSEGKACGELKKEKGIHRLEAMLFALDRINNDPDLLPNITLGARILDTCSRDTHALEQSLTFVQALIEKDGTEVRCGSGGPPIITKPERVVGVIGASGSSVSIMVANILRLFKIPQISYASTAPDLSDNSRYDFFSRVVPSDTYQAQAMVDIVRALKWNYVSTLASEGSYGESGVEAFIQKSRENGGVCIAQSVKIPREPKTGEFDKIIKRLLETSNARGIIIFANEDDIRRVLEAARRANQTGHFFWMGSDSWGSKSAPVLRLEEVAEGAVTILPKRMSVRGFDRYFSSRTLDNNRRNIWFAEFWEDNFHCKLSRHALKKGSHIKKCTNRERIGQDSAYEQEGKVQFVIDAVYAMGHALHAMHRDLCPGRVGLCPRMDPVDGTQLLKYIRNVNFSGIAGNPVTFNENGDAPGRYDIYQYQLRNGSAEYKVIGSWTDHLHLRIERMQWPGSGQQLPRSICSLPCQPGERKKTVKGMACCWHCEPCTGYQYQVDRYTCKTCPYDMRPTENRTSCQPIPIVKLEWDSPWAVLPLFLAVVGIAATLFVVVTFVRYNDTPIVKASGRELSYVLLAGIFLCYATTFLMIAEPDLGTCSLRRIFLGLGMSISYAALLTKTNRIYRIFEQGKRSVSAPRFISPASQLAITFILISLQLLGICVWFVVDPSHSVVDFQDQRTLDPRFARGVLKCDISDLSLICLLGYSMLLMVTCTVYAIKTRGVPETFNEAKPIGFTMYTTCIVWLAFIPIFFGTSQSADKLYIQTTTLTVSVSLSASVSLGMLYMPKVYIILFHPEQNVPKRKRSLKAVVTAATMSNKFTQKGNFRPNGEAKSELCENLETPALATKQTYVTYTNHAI
compound,measurement,setting,value
O=C(Nc1ccc(N2C(=O)c3ccccc3C2=O)c(Cl)c1)c1ccccn1,EC50,[1],0.07 µM (active)
CC(=O)Nc1ccc(NC2=C/C(=N/S(=O)(=O)c3cccs3)c3ccccc3C2=O)cc1,IC50,[2],1.61 µM (active)
same,IC50,Hexokinase HKDC1,3.72 µM (active)
same,IC50,SUMO-activating enzyme [3],1.34 µM (active)
same,EC50,[4],3.44 µM (active)
same,IC50,[5],> 67 µM (not active)
same,IC50,[6],12.3 µM (not active)
same,AC50,INS1,4.23 µM (active)
same,IC50,SUMO-activating enzyme [7],> 100 µM (inactive)
same,IC50,[8],1.48 µM (active)
same,IC50,[9],14.3 µM (inactive)
same,EC50,[10],3.58 µM (active)
Cc1cc(Nc2ccc(Cl)cc2)nc(NCc2ccccc2)n1,IC50,[11],> 20 µM (inactive)
same,IC50,[12],0.878 µM (active)
same,EC50,[13],5.72 µM (active)
same,AC50,[14],8.5 µM (active)
same,IC50,Phospholipase A2,15.4 µM (active)
same,EC50,[15],2.45 µM (active)
same,IC50,Cysteine protease ATG4B,10.9 µM (active)
same,IC50,[16],1.51 µM (active)
same,EC50,[17],6.7 µM (active)
same,AC50,[18],2.98 µM (active)
same,EC50,[19],> 150 µM (inactive)
same,AC50,[20],15.3 µM (active)
same,AC50,[21],3.31 µM (active)
same,AC50,[22],4.05 µM (active)
same,Absolute IC50 (XBP1),X-box-binding protein 1,< 10 µM
